Test results published in the NIST ThermoML archive (doi:10.1021/je050050p).
Numbers after ± are expanded uncertainties.

Conditions: Liquid, Vibrating tube method

CN(C)C=O [dimethylformamide]
Conditions	mass density [kg/m3]
313.12 K, 1008 kPa	930.41 ± 0.41
313.12 K, 2010 kPa	931.09 ± 0.41
313.12 K, 3012 kPa	931.73 ± 0.41
313.12 K, 4008 kPa	932.38 ± 0.41
313.12 K, 5004 kPa	933.04 ± 0.41
313.12 K, 6002 kPa	933.68 ± 0.41
313.12 K, 7002 kPa	934.32 ± 0.41
313.12 K, 8004 kPa	934.97 ± 0.41
313.12 K, 9000 kPa	935.62 ± 0.41
313.12 K, 10004 kPa	936.27 ± 0.41
313.12 K, 11004 kPa	936.89 ± 0.41
313.12 K, 12004 kPa	937.51 ± 0.41
313.12 K, 13005 kPa	938.14 ± 0.41
313.12 K, 14007 kPa	938.78 ± 0.41
313.12 K, 15002 kPa	939.37 ± 0.41
313.12 K, 16012 kPa	940 ± 0.41
313.12 K, 17009 kPa	940.59 ± 0.41
313.12 K, 18015 kPa	941.19 ± 0.41
313.12 K, 19010 kPa	941.79 ± 0.41
313.12 K, 20013 kPa	942.42 ± 0.41
313.12 K, 21009 kPa	942.99 ± 0.41
313.12 K, 22011 kPa	943.58 ± 0.41
313.12 K, 23019 kPa	944.17 ± 0.41
313.12 K, 24013 kPa	944.75 ± 0.41
313.12 K, 25011 kPa	945.35 ± 0.41
323.06 K, 1014 kPa	920.89 ± 0.41
323.06 K, 2007 kPa	921.59 ± 0.41
323.06 K, 3026 kPa	922.27 ± 0.41
323.06 K, 4006 kPa	922.95 ± 0.41
323.06 K, 5016 kPa	923.62 ± 0.41
323.06 K, 6010 kPa	924.3 ± 0.41
323.06 K, 7006 kPa	924.99 ± 0.41
323.06 K, 8010 kPa	925.64 ± 0.41
323.06 K, 9012 kPa	926.32 ± 0.41
323.06 K, 10014 kPa	926.99 ± 0.41
323.06 K, 11011 kPa	927.65 ± 0.41
323.06 K, 12013 kPa	928.31 ± 0.41
323.06 K, 13007 kPa	928.97 ± 0.41
323.06 K, 14011 kPa	929.62 ± 0.41
323.06 K, 15008 kPa	930.29 ± 0.41
323.06 K, 16014 kPa	930.92 ± 0.41
323.06 K, 17004 kPa	931.54 ± 0.41
323.06 K, 18006 kPa	932.19 ± 0.41
323.06 K, 19006 kPa	932.82 ± 0.41
323.06 K, 20005 kPa	933.44 ± 0.41
323.06 K, 21002 kPa	934.07 ± 0.42
323.06 K, 22013 kPa	934.7 ± 0.42
323.06 K, 23015 kPa	935.31 ± 0.42
323.06 K, 24008 kPa	935.92 ± 0.42
323.06 K, 25012 kPa	936.53 ± 0.42
333 K, 1008 kPa	911.34 ± 0.41
333 K, 2018 kPa	912.08 ± 0.41
333 K, 3006 kPa	912.78 ± 0.41
333 K, 4005 kPa	913.51 ± 0.41
333 K, 5005 kPa	914.23 ± 0.41
333 K, 6008 kPa	914.97 ± 0.41
333 K, 7003 kPa	915.68 ± 0.41
333 K, 8009 kPa	916.39 ± 0.41
333 K, 9010 kPa	917.11 ± 0.41
333 K, 10008 kPa	917.81 ± 0.41
333 K, 11008 kPa	918.51 ± 0.41
333 K, 12008 kPa	919.2 ± 0.41
333 K, 13013 kPa	919.9 ± 0.41
333 K, 14006 kPa	920.57 ± 0.41
333 K, 15007 kPa	921.24 ± 0.41
333 K, 16011 kPa	921.92 ± 0.42
333 K, 17019 kPa	922.59 ± 0.42
333 K, 18010 kPa	923.27 ± 0.42
333 K, 19004 kPa	923.91 ± 0.42
333 K, 20012 kPa	924.58 ± 0.42
333 K, 21005 kPa	925.24 ± 0.42
333 K, 22005 kPa	925.88 ± 0.42
333 K, 23014 kPa	926.52 ± 0.42
333 K, 24009 kPa	927.19 ± 0.42
333 K, 25009 kPa	927.83 ± 0.42
342.86 K, 1028 kPa	901.52 ± 0.41
342.86 K, 2020 kPa	902.3 ± 0.41
342.86 K, 3015 kPa	903.09 ± 0.41
342.86 K, 4002 kPa	903.84 ± 0.41
342.86 K, 5035 kPa	904.63 ± 0.41
342.86 K, 6026 kPa	905.39 ± 0.41
342.86 K, 7013 kPa	906.13 ± 0.41
342.86 K, 8017 kPa	906.89 ± 0.41
342.86 K, 9024 kPa	907.66 ± 0.41
342.86 K, 10012 kPa	908.38 ± 0.41
342.86 K, 11048 kPa	909.14 ± 0.41
342.86 K, 11999 kPa	909.83 ± 0.41
342.86 K, 13018 kPa	910.6 ± 0.42
342.86 K, 14029 kPa	911.32 ± 0.42
342.86 K, 15007 kPa	912.03 ± 0.42
342.86 K, 15994 kPa	912.71 ± 0.42
342.86 K, 17041 kPa	913.47 ± 0.42
342.86 K, 18012 kPa	914.16 ± 0.42
342.86 K, 19006 kPa	914.85 ± 0.42
342.86 K, 20042 kPa	915.55 ± 0.42
342.86 K, 21025 kPa	916.22 ± 0.42
342.86 K, 22008 kPa	916.9 ± 0.42
342.86 K, 23079 kPa	917.63 ± 0.42
342.86 K, 24008 kPa	918.25 ± 0.42
342.86 K, 25017 kPa	918.93 ± 0.42
352.8 K, 1040 kPa	891.76 ± 0.41
352.8 K, 2009 kPa	892.57 ± 0.41
352.8 K, 3011 kPa	893.41 ± 0.41
352.8 K, 4020 kPa	894.22 ± 0.41
352.8 K, 5050 kPa	895.06 ± 0.41
352.8 K, 6060 kPa	895.78 ± 0.41
352.8 K, 6996 kPa	896.53 ± 0.41
352.8 K, 8008 kPa	897.34 ± 0.41
352.8 K, 9034 kPa	898.16 ± 0.41
352.8 K, 10019 kPa	898.93 ± 0.42
352.8 K, 11043 kPa	899.73 ± 0.42
352.8 K, 11998 kPa	900.45 ± 0.42
352.8 K, 13028 kPa	901.24 ± 0.42
352.8 K, 14015 kPa	901.99 ± 0.42
352.8 K, 15028 kPa	902.74 ± 0.42
352.8 K, 16000 kPa	903.48 ± 0.42
352.8 K, 17011 kPa	904.23 ± 0.42
352.8 K, 17999 kPa	904.96 ± 0.42
352.8 K, 19044 kPa	905.73 ± 0.42
352.8 K, 20050 kPa	906.43 ± 0.42
352.8 K, 21038 kPa	907.16 ± 0.42
352.8 K, 21955 kPa	907.8 ± 0.42
352.8 K, 23009 kPa	908.57 ± 0.42
352.8 K, 23996 kPa	909.27 ± 0.43
352.8 K, 25056 kPa	910.04 ± 0.43
362.67 K, 1058 kPa	882.04 ± 0.41
362.67 K, 2038 kPa	882.89 ± 0.41
362.67 K, 3044 kPa	883.77 ± 0.41
362.67 K, 4027 kPa	884.62 ± 0.41
362.67 K, 5068 kPa	885.54 ± 0.41
362.67 K, 6036 kPa	886.37 ± 0.41
362.67 K, 7025 kPa	887.22 ± 0.41
362.67 K, 8027 kPa	888.03 ± 0.42
362.67 K, 9045 kPa	888.9 ± 0.42
362.67 K, 10021 kPa	889.71 ± 0.42
362.67 K, 11024 kPa	890.55 ± 0.42
362.67 K, 11996 kPa	891.3 ± 0.42
362.67 K, 13061 kPa	892.19 ± 0.42
362.67 K, 14027 kPa	892.95 ± 0.42
362.67 K, 15025 kPa	893.73 ± 0.42
362.67 K, 15987 kPa	894.49 ± 0.42
362.67 K, 17050 kPa	895.32 ± 0.42
362.67 K, 18009 kPa	896.08 ± 0.42
362.67 K, 19041 kPa	896.85 ± 0.42
362.67 K, 20032 kPa	897.62 ± 0.43
362.67 K, 21035 kPa	898.36 ± 0.43
362.67 K, 22014 kPa	899.1 ± 0.43
362.67 K, 23018 kPa	899.87 ± 0.43
362.67 K, 24007 kPa	900.58 ± 0.43
362.67 K, 25016 kPa	901.35 ± 0.43
